Patent US20090042869A1, “SIGNAL-DEPENDENT SPLICING OF TISSUE FACTOR PRE-mRNA IN [sequence] CELLS” (UNIVERSITY OF UTAH RESEARCH FOUNDATION, priority 2007, published 2009)

How the values were obtained:
activated platelets = assay: TF-dependent procoagulant activity (Actichrome TF assay); type: cell-based, human; settings: stimulated platelets (fibrinogen + thrombin)
From the text: (§1) CD34+ stem cells were isolated from human umbilical cord blood and were differentiated into megakaryocytes that produce proplatelets using methods that we have previously described^18. Leukocyte-depleted human platelets were isolated from healthy volunteers using previously described methods^18,29. For all of the platelet studies, residual leukocytes were removed from the washed preparations by CD45+ bead selection as previously described^1. […] Platelets were resuspended in M199 serum-free culture medium^1,2. Platelets were left quiescent or allowed to adhere to immobilized human fibrinogen (Calbiochem) in the presence of thrombin (0.05 U/ml; Sigma-Aldrich). Select studies were also conducted with suspended platelets that were activated with ADP, collagen, or thrombin. […] For translational inhibition, platelets were isolated and preincubated for 2 h in the presence of vehicle (water) or puromycin as previously described^2.
TF-dependent procoagulant activity was calculated with an Actichrome TF assay (American Diagnostica) as previously described^13. […] Intact cellular membranes and microparticles were immediately placed in 25 μl of kit assay buffer and TF-dependent procoagulant activity was calculated. […]

SRPK1 = SRPK1 (Homo sapiens, UniProt Q96SB4); settings: at concentrations up to 1 μM; cited from earlier work
mClk3 = mClk3 (Mus musculus, UniProt O35492); settings: cited from earlier work
human plasma = assay: Plasma clot formation with membranes from activated platelets; type: cell-based; settings: membranes of platelets activated 5 min or 2 h
Method: FIG. 5F illustrates clot formation in plasma that is incubated with membranes isolated from quiescent platelets or platelets activated with fibrinogen and thrombin for 5 min (left) or 2 h (right). The white bars represent activated platelets that were incubated with a neutralizing antibody directed against tissue factor (Anti-TF). The data in FIGS. 5D, 5E, an 5F represent the mean±SEM of six independent experiments.
FIG. 8B is a western blot analysis showing TF protein expression in platelets and platelet-derived microparticles. […] Recombinant TF was used as a positive control. FIG. 8C depicts TF-dependent procoagulant activity in freshly isolated platelets or platelets activated, as in FIG. 2B, in the presence or absence of the Clk inhibitor. […] A single asterisk (*) indicates a statistically significant difference (P<0.05) in TF-dependent procoagulant activity between freshly isolated (baseline) and activated platelets; the double asterisk (**) represents a significant difference (P<0.05) between activated platelets under untreated or treated conditions. […] The activated platelets were pretreated with either the Clk inhibitor (Clk Inh) or DMSO. The data represent the mean±SEM of five independent experiments. […]
Therefore, the affect of platelet-derived TF on plasma clotting times was determined. […]

SRPK2 = SRPK2 (Homo sapiens, UniProt P78362); settings: at concentrations up to 1 μM; cited from earlier work
platelets = assay: Other platelet functional responses (immunocytochemistry); type: cell-based, human; settings: fibrinogen + thrombin, 1 h
Method: After 1 h, the cells were prepared for immunocytochemical detection (red staining) of Clk1 (top) or β-tubulin (bottom). The green stain in each panel identifies polymerized actin.
Detailed strategies for protein detection by flow cytometry, Western blot analysis, and immunocytochemistry have been previously published^18,29. A polyclonal antibody against human TF (pAb CL 20150A; Affinity Biologicals) was used under nonreducing conditions to detect TF protein by Western analysis. Antibodies directed against TF (mAb 550252; BD Biosciences), Clk family members (Abgent), or β-tubulin (Sigma-Aldrich) were used for immunocytochemical studies. For the in situ experiments, polymerized actin was detected with Alexa fluor 488 phalloidin (Molecular Probes). Specificity was confirmed by parallel studies with nonimmune IgG or deletion of the primary antibody. Detailed strategies for protein detection by Western analysis and immunocytochemistry have been previously published^1,2. Flow cytometric analysis of surface-expressed CD14, CD45, and CD162 (PSGL-1) was performed on washed platelet preparations before and after CD45 depletion, on CD45 positively selected cells, and on purified monocytes (FIG. 1).

TF pre-mRNA [1] = assay: TF pre-mRNA splicing in activated platelets (PCR); type: cell-based, human; settings: platelets adherent to fibrinogen, coactivated with thrombin 2 h
From the text: as §1, with “described^2. For most of the TF pre-mRNA studies, primers that targeted sequences in exon four ([NT] ID NO: 1) and five ([NT] ID NO: 2), and thus spanned intron four, were used to determine endogenous splicing of TF pre-mRNA in platelets. Indirect in situ hybridization or direct in situ PCR was used to detect TF pre-mRNA in megakaryocytes and platelets as previously described^18. Primers that detected alternatively spliced human […] used as previously described^3. […]” for “described^2.”

TF protein = TF protein expression in platelets and platelet-derived microparticles (Western blot); type: cell-based, human; settings: activated platelets, 30 min or 4 h
From the text: as §1
Detailed strategies for protein detection by flow cytometry, Western blot analysis, and immunocytochemistry have been previously published^18,29. A polyclonal antibody against human TF (pAb CL 20150A; Affinity Biologicals) was used under nonreducing conditions to detect TF protein by Western analysis. […] For the in situ experiments, polymerized actin was detected with Alexa fluor 488 phalloidin (Molecular Probes). […]

PKC = settings: at concentrations up to 1 μM; cited from earlier work
Clk1 = Clk1 (Homo sapiens, UniProt P49759); assay: Immune complex kinase assay for Clk1 activity in platelets (SF2/ASF substrate); type: cell-based; settings: stimulated platelets (fibrinogen + thrombin), pretreated; vs vehicle
From the text: Leukocyte-depleted human platelets were isolated from healthy volunteers using previously described methods^18,29. For all of the platelet studies, residual leukocytes were removed from the washed preparations by CD45+ bead selection as previously described^1. […] Platelets were resuspended in M199 serum-free culture medium^1,2. Platelets were left quiescent or allowed to adhere to immobilized human fibrinogen (Calbiochem) in the presence of thrombin (0.05 U/ml; Sigma-Aldrich). […] For translational inhibition, platelets were isolated and preincubated for 2 h in the presence of vehicle (water) or puromycin as previously described^2.
Immune complex kinase assay for Clk1 activity. Clk1 activity in platelets was determined using an immune complex kinase assay. […] Kinase assays were performed by addition of recombinant SF2/ASF (Protein One) in the presence of γ-[^32P]ATP (MP Biomedicals). At the end of this incubation period, the agarose beads and immune complexes were removed by centrifugation, and the unbound sample, which contained SF2/ASF, was resolved by SDS-PAGE.

PKA = settings: at concentrations up to 1 μM; cited from earlier work
IL-1β pre-mRNA = IL-1β pre-mRNA splicing in platelets of subjects receiving medication; type: in vivo, human; settings: in young subjects
TF pre-mRNA [2] = assay: TF pre-mRNA splicing in platelets of subjects receiving medication; type: in vivo, human; settings: for signal-dependent TF pre-mRNA splicing: in the elderly; for impact on TF pre-mRNA splicing: subjects receiving the drug

Chain of Clk1 (P49759 whole entry): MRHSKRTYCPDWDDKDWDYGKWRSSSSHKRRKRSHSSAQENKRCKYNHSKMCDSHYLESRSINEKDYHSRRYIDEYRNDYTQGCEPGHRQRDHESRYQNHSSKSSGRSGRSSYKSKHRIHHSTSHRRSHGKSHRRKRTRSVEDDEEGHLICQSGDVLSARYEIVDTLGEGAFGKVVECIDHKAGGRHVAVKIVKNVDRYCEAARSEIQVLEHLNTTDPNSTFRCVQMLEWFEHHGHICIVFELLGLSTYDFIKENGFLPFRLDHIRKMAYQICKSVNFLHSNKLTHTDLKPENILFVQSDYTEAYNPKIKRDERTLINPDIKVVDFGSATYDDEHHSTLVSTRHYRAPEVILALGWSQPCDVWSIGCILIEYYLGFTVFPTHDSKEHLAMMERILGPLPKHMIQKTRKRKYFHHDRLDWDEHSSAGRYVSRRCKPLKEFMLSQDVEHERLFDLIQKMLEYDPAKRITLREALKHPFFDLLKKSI
Chain of mClk3 (O35492 whole entry): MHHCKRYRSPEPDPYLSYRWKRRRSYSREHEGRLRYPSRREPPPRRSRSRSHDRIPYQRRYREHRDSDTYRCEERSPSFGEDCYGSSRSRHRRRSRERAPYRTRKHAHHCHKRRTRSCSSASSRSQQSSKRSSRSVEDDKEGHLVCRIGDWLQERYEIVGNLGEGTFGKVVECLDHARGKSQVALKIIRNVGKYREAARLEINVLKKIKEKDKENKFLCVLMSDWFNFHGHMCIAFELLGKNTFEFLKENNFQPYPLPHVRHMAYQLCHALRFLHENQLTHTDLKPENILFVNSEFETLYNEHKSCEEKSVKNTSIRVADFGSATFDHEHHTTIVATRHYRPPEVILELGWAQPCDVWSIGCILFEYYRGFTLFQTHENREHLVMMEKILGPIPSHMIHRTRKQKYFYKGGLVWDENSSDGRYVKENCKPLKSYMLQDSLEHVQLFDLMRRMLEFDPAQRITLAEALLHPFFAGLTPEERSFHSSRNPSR
Chain of SRPK1 (Q96SB4 whole entry, species assumed): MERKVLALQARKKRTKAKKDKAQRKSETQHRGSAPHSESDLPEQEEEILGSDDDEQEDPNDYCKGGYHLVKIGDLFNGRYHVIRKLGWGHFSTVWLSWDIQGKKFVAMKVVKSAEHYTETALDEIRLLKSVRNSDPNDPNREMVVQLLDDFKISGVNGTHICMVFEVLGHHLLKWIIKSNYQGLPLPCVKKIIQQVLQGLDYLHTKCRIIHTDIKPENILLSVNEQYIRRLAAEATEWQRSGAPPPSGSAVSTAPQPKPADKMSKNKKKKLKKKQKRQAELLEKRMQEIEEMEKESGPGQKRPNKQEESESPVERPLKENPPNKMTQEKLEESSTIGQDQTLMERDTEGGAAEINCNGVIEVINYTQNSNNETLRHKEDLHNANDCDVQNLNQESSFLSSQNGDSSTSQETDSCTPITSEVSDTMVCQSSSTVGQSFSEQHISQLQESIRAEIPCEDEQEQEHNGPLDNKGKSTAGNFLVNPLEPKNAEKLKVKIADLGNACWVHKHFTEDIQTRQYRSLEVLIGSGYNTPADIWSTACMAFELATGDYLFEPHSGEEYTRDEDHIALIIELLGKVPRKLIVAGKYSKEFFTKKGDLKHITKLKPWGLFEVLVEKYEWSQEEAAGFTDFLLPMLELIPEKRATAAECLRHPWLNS
Chain of SRPK2 (P78362 whole entry, species assumed): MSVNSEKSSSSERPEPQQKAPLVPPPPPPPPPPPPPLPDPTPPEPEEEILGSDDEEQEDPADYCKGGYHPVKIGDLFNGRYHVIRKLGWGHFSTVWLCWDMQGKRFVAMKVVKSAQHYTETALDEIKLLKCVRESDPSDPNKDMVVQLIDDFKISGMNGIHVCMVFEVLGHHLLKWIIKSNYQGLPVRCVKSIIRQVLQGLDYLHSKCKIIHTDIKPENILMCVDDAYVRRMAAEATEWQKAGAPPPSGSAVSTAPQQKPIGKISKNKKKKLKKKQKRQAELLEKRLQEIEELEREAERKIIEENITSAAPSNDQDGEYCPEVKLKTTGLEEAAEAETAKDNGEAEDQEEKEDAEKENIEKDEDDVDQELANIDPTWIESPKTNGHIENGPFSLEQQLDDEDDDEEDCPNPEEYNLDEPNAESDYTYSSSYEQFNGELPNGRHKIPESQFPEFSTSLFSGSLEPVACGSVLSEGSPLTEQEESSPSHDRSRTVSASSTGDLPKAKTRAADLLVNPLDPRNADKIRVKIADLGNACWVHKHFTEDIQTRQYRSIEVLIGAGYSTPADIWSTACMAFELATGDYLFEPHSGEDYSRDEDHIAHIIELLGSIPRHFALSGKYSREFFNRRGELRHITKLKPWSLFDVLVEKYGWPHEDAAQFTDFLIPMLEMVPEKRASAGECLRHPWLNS

COc1ccc(C[C@H](N)C(=O)N[C@H]2[C@@H](O)[C@H](n3cnc4c(N(C)C)ncnc43)O[C@@H]2CO)cc1 [Puromycin]
TF-dependent procoagulant activity (activated platelets): significantly (P<0.05) reduced

CCN1/C(=C/C(C)=O)Sc2ccc(OC)cc21 [Tg003, (Z)-1-(3-Ethyl-5-methoxy-2,3-dihydrobenzothiazol-2-ylidene)propan-2-one]
effect on activity of SRPK1 (SRPK1): does not affect | IC50 (mClk3): > 10 µM | onset of plasma clot formation (human plasma): delayed | effect on activity of SRPK2 (SRPK2): does not affect | other platelet functional responses (adherence and spreading, actin polymerization, tubulin organization, Clk1 redistribution) (platelets): no effect | processing of TF pre-mRNA (TF pre-mRNA [1]): prevented | expression of TF protein (TF protein): blocked | TF-dependent procoagulant activity (activated platelets): significantly (P<0.05) reduced | effect on activity of PKC (PKC): does not affect | Clk1-dependent SF2/ASF phosphorylation (Clk1): suppressed | effect on activity of PKA (PKA): does not affect

CC(=O)Oc1ccccc1C(=O)O [aspirin]
IL-1β pre-mRNA splicing (IL-1β pre-mRNA): do not block | signal-dependent TF pre-mRNA splicing (TF pre-mRNA [2]): do not block | impact on TF pre-mRNA splicing (TF pre-mRNA [2]): do not appear to have a significant impact

heparin
IL-1β pre-mRNA splicing (IL-1β pre-mRNA): do not block | signal-dependent TF pre-mRNA splicing (TF pre-mRNA [2]): do not block | impact on TF pre-mRNA splicing (TF pre-mRNA [2]): do not appear to have a significant impact
